Measured values from patent US9345677B2, “Compositions, methods and kits relating to HER-2 cleavage” (Incyte Corporation, priority 2003, dated 2016).
One block for each molecule: values may come before it.

What was measured:
[1] = system: BT-474-SC1 tumor xenografts; test: Tumor volume in BT-474-SC1 xenograft model; format: in vivo, mice
Procedure: For the BT-474-SC1 tumor model (see Results below), slow-release estrogen pellets (Innovative Research of America) were inserted subcutaneously (s.c.) into the flank of each mouse 24 hours prior to tumor cell inoculation. Balb/C nude and SCID-bg mice were obtained from Charles River Laboratories. Cells were harvested from their tissue culture plates, counted, centrifuged, and resuspended in serum free growth media and BD Matrigel™ at a 1:1 ratio immediately prior to implantation. In either one or two locations, 1−2×10^7 viable BT-474-SC1 cells were injected s.c. into the upper flank of each mouse. For all models, tumors were measured on a weekly basis and their volumes calculated using the formula [volume=(length×width^2)÷2]. Once the mean tumor volume of the required number of mice reached the desired size (usually >150 mm^3), they were randomized into treatment groups usually containing between 6 and 12 mice. Animals were then treated with compound or vehicle (10% DMAC, 30% propylene glycol) by mini-osmotic pump (Alzet, Cupertino, Calif.) implanted i.p. or s.c. for 7 to 28 days to achieve the desired compound exposure—controlled by altering the pump flow rate and/or the concentration of compound inside the pumps. Tumor size and body weights (a measure of animal health) were monitored weekly. Blood samples were also drawn (retro-orbital) while the osmotic pumps were functional and plasma was separated by centrifugation and stored at −80° C. for later pharmacokinetic and/or ELISA analysis, to determine the levels of circulating Her-2 ECD (described above). Note that in experiments designed to evaluate the effects of compound treatment on levels circulating Her-2 ECD, blood samples were drawn on the day osmostic pumps were implanted (day 0) and then again six days later (day 6).

[2] = system: circulating Her-2 ECD; test: Plasma Her-2 ECD ELISA in BT-474-SC1 xenograft mice; format: in vivo
Procedure: For the BT-474-SC1 tumor model (see Results below), slow-release estrogen pellets (Innovative Research of America) were inserted subcutaneously (s.c.) into the flank of each mouse 24 hours prior to tumor cell inoculation. Balb/C nude and SCID-bg mice were obtained from Charles River Laboratories. Cells were harvested from their tissue culture plates, counted, centrifuged, and resuspended in serum free growth media and BD Matrigel™ at a 1:1 ratio immediately prior to implantation. In either one or two locations, 1−2×10^7 viable BT-474-SC1 cells were injected s.c. into the upper flank of each mouse. For all models, tumors were measured on a weekly basis and their volumes calculated using the formula [volume=(length×width^2)÷2]. Once the mean tumor volume of the required number of mice reached the desired size (usually >150 mm^3), they were randomized into treatment groups usually containing between 6 and 12 mice. […] Tumor size and body weights (a measure of animal health) were monitored weekly. […]
To measure levels of circulating Her-2 ECD in mice, plasmas were isolated from the blood samples described above and analyzed shortly after harvesting or stored frozen at −80° C. until analysis. To assess Her-2 ECD levels, plasma samples were diluted 1:5 and analyzed using a commercially available Her-2 ELISA kit per manufacturer's instructions (Oncogene Research, catalog #QIA10). […]

[3] = system: Her-2 cleavage in a primary breast tumor cell line that over expresses Her-2; test: Shed Her-2 ECD in primary breast tumor cell culture; format: cell-based, human; conditions: primary breast tumor cell line over expressing Her-2
Procedure: Tumor specimens were obtained by Oncotech (Tustin, Calif.) according to their IRB approved protocol using standard procedures known in the art. Cell cultures were maintained in tissue culture flasks. Cells intended for experimental treatment were harvested in log phase with EDTA and were plated at a density of 1×10^5 cells/well in 24-well polystyrene plates in 0.5 ml RPMI with 10% FCS. Experiments to determine the effects of MPIs on shed Her-2 receptor were performed as described below for BT-474 cells.
(§1) BT474 cells were seeded in 100 μL of RPMI medium containing 10% FCS+10 μg/ml insulin in 96 well plates at 2×10^4 cells/well. The cells were incubated overnight at 37° C. The following morning, the media was removed and 100 μL of fresh media with or without compound was added back. The cells were incubated for about 72 hours at 37° C. After about 72 hours, the supernatants were removed. The samples were diluted 1:10 and analyzed using a commercially available Her-2 ELISA kit per manufacturer's instructions (Oncogene Research, catalog #QIA 10).

[4] = system: AKT and ERK phosphorylation in BT474 cells; test: Western blot of phospho-ERK and phospho-AKT; format: cell-based, human
Procedure: In experiments to determine the effects of MPI treatment on cell signaling, BT474 cells were plated at 1×10^5 cells/mL in 2 mL of media (RPMI+10% FCS+10 μg/mL insulin) in 12-well plates. […] After 5 days, the cells were harvested, lysed in 200 μL ice-cold lysis buffer containing 10 mM Tris, pH 7.2, 150 mM NaCl, 1% Triton X-100, 1% deoxycholic acid, 0.1% SDS, 50 μg/mL leupeptin, 50 μg/mL aprotinin, 1 mM sodium vanadate, 50 mM sodium fluoride, 1 mM PMSF. After 10 minutes on ice, the samples were microfuged at 13,000 rpm for 10 minutes at 4° C. and the supernatants collected. For analysis, 15 μL of 2× Laemmli sample buffer (BioRad, cat#161-0737) was added to 15 μL of extract, samples boiled for 5 minutes and loaded onto 12-well 12% Tris-Glycine gels (Novex, cat# EC60052). Gels were run in 1× Tris-Glycine-SDS buffer (Gibco BRL) using Novex minigel apparatus for approximately 1.5 hours. Following electrophoresis, proteins were transferred onto PVDF membrane (NEN, cat#NEF1000) in 1× Tris-Glycine buffer (Biorad, cat#161-0734) containing 20% MeOH for 2-3 hours using BioRad miniblot transfer system. After transfer, membranes were blocked in PBS+5% milk+0.1% Tween-20 for 1 h at RT. […]
Phosphorylation of AKT and the MAP kinase ERK were monitored by western blot analysis using phospho-specific antibodies.

[5] = system: Her-2 cleavage in SK-BR3 cells; test: Western blot of Her-2 ECD (105 kDa) in culture supernatants; format: cell-based, human; conditions: varying concentrations
[6] = system: Her-2 cleavage in BT-474 cells; test: as above; format: cell-based, human
Procedure: BT474 cells were seeded in 1 mL of RPMI medium containing 10% FCS+10 μg/ml insulin in 12 well plates at 1×10^5 cells/well. The cells were incubated overnight at 37° C. The following morning, the media was removed and 1 mL of fresh serum-free RPMI media+/− compound was added back. The cells were incubated for 5 days at 37° C. After 5 days, the supernatants were removed. 15 μL of supernatant was added to 15 μL of sample buffer (Novex, catalog #LC2676) and the samples were loaded onto a 4-12% Tris-Glycine gradient gel (Novex, EC6035). The samples were separated for 2 hours at 125 volts. The gels were then transferred onto PVDF membrane (NEN, catalog #NEF-100) at 30 volts overnight in the cold. The following morning, the blots were blocked in 5% milk/PBS/0.05% Tween-20 for 1 hour at room temperature. Her-2 antibody (NeoMarkers, catalog #MS-1350-P1) was diluted 1:200 in 5% milk/PBS/0.05% Tween-20 and incubated with the blots for 2 hours at room temperature. The blots were washed 5 times (10 minutes each wash) in PBS/0.05% Tween-20. An HRP-conjugated goat anti-mouse IgG antibody was diluted 1:2000 and added to the blots for 1 hour at room temperature, The blots were washed 5 times (10 minutes each wash) in PBS/0.05% Tween-20. The blots were then incubated for 5 minutes with SuperSignal West Pico Chemiluminescent substrate (Pierce, catalog #34080) and exposed to film.

[7] = system: AKT and ERK phosphorylation in MCF7 cells; test: Western blot of phospho-ERK and phospho-AKT; format: cell-based, human; conditions: Her-2 non-overexpressing MCF7 cells
[8] = system: Her-2 sheddase; test: Her-2 ECD ELISA of BT474 culture supernatants (Her-2 sheddase inhibition); format: cell-based, human
Procedure: as §1
These inhibitors were added, at varying concentrations, to cultures of BT474 cells, a Her-2 overexpressing breast cancer cell line known to enzymatically process cell surface Her-2 (p185) and release the extracellular domain (ECD) into the culture supernatant, i.e., shedding of ECD. After 72 hours, cell culture supernatants were harvested and assayed for Her-2 ECD content using an ELISA assay.

Compound: COC(=O)N1CC2(CC2)C[C@H](C(=O)NO)[C@H]1C(=O)N1CCN(c2ccccc2)CC1 [Compound 2, methyl (6S,7S)-7-[(hydroxyamino)carbonyl]-6-[(4-phenylpiperazin-1-yl)carbonyl]-5-azaspiro[2.5]octane-5-carboxylate]
tumor size on day 6 compared to vehicle ([1]; BT474-SC1 xenograft, p=0.0001): significantly smaller
magnitude of change in tumor volume ([1]; day 6): 27%
partial remission (greater than a 25% reduction in tumor volume) ([1]; day 6): multiple tumors demonstrated a partial remission
level of circulating ECD on day 6 compared to vehicle ([2]; BT-474-SC1 tumor bearing mice, osmotic pump, p<0.0001): significantly lower
magnitude of change in ECD ([2]; day 6): 56%

inhibition of Her-2 cleavage (ECD processing), ELISA ([8]; BT-474 cells, 72 hours): inhibition of Her-2 cleavage
Compound: COc1ccc(S(=O)(=O)N2Cc3ccccc3C[C@@H]2C(=O)NO)cc1 [Compound 4, (3R)-N-hydroxy-2-((4-methoxyphenyl)sulfonyl)-1,2,3,4-tetrahydroisoquinoline-3-carboxamide]
inhibition of Her-2 cleavage [3]: inhibition of Her-2 cleavage
phosphorylation of both AKT and ERK ([4]; sheddase inhibitor in combination with 0.2 μg/ml Herceptin): detectable reduction in phosphorylation
AKT or ERK phosphorylation, single agent ([4]; sheddase inhibitor less than 5 μM alone or 0.2 μg/ml Herceptin alone): did not demonstrate a detectable effect
inhibition of Her-2 cleavage, Western blot [5]: inhibition of Her-2 cleavage
inhibition of Her-2 cleavage, Western blot ([6]; MPI alone, varying concentrations): inhibition of Her-2 cleavage
blocking Her-2 cleavage, MPI in combination with Herceptin ([6]; combination with Herceptin): additive effect
AKT and MAP kinase pathways [7]: not impacted

Compound: O=C(NO)[C@H]1CC2(CC2)CN[C@@H]1C(=O)N1CC=C(c2ccccc2)CC1 [Compound 3, (6S,7S)-6-{[4-phenyl-3,6-dihydropyridin-1(2H)-yl]carbonyl}-N-hydroxy-5-azaspiro[2.5]octane-7-carboxamide]
tumor growth over a 28-day period ([1]; BT474-SC1 model, vehicle tumors tripled in size): complete suppression of tumor growth

IC50 [8]: 20 to 100 nM
Compound: CC1(C)SCCN(S(=O)(=O)c2ccc(Oc3ccncc3)cc2)[C@H]1C(=O)NO [Compound 7, Prinomastat, reference compound]
